From ChEMBL document CHEMBL3608226, “Synthesis and biological evaluation of phaitanthrin congeners as anti-mycobacterial agents” (2015)
≈ marks a conversion by molar mass, not a printed value.

What follows are compounds tested on Mycobacterium avium (assay: Antimycobacterial activity against Mycobacterium avium). Details: not given.
Type: functional

| SMILES | MIC [µg/mL] |
| --- | --- |
| O=C1c2ccccc2-n2c1nc1ccccc1c2=O [TRYPTANTHRIN] | 4 (≈ 16.1 µM) |

The compounds below were run on Mycolicibacterium smegmatis (assay: Antimycobacterial activity against Mycobacterium smegmatis). Details: not given.
Type: functional

| SMILES | MIC [µg/mL] |
| --- | --- |
| O=C1c2ccccc2-n2c1nc1ccccc1c2=O [TRYPTANTHRIN] | 6 (≈ 24.2 µM) |

Each compound was assayed on Mycobacterium tuberculosis (assay: Antimycobacterial activity against Mycobacterium tuberculosis H37Rv). Details: not given.
Type: functional

| SMILES | MIC [µg/mL] |
| --- | --- |
| O=C1c2ccccc2-n2c1nc1ccccc1c2=O [TRYPTANTHRIN] | 1 (≈ 4.03 µM) |

What follows are compounds tested on Mycobacterium tuberculosis (assay: Antimycobacterial activity against Mycobacterium tuberculosis H37Rv ATCC 27294 after 28 days by agar dilution method). Details: H37Rv ATCC 27294, 672 h.
Type: functional

| SMILES | MIC [µM] |
| --- | --- |
| O=c1c2ccccc2[nH]c2c(-c3c(-c4ccccc4)[nH]c4ccccc34)c3ccccc3n12 | 8.58 (≈ 3.65 µg/mL) |
| O=c1c2ccccc2[nH]c2c(-c3c(-c4ccccc4O)[nH]c4ccccc34)c3ccccc3n12 | 29.4 (≈ 13 µg/mL) |
| N#Cc1ccc(-c2[nH]c3ccccc3c2-c2c3ccccc3n3c(=O)c4ccccc4[nH]c23)cc1 | 7.06 (≈ 3.18 µg/mL) |
| O=c1c2ccccc2[nH]c2c(-c3c(-c4ccc(F)cc4)[nH]c4ccccc34)c3ccccc3n12 | 27.7 (≈ 12.3 µg/mL) |
| O=c1c2ccccc2[nH]c2c(-c3c(-c4ccc(Br)cc4)[nH]c4ccccc34)c3ccccc3n12 | 56.4 (≈ 28.5 µg/mL) |
| Nc1ccccc1-c1[nH]c2ccccc2c1-c1c2ccccc2n2c(=O)c3ccccc3[nH]c12 | 6.18 (≈ 2.72 µg/mL) |
| O=c1c2ccccc2[nH]c2c(-c3c(-c4cccs4)[nH]c4ccccc34)c3ccccc3n12 | 7.3 (≈ 3.15 µg/mL) |
| CCc1ccc(-c2[nH]c3ccccc3c2-c2c3ccccc3n3c(=O)c4ccccc4[nH]c23)cc1 | 12.3 (≈ 5.59 µg/mL) |
| Nc1ccc(-c2[nH]c3ccccc3c2-c2c3ccccc3n3c(=O)c4ccccc4[nH]c23)cc1 | 14.2 (≈ 6.24 µg/mL) |
| O=C(CC1(O)c2ccccc2-c2nc3ccccc3nc21)c1ccc(Br)cc1 (racemic) | 14.4 (≈ 6.22 µg/mL) |
| Nc1ccccc1C(=O)CC1(O)c2ccccc2-c2nc3ccccc3nc21 (racemic) | 17 (≈ 6.25 µg/mL) |
| Nc1ccc(C(=O)CC2(O)c3ccccc3-c3nc4ccccc4nc32)cc1 (racemic) | 8.45 (≈ 3.1 µg/mL) |
| Brc1ccc(C2=NN(c3ccccc3)C3(C2)c2ccccc2-c2nc4ccccc4nc23)cc1 (racemic) | 12.4 (≈ 6.25 µg/mL) |
| Nc1ccccc1C1=NN(c2ccccc2)C2(C1)c1ccccc1-c1nc3ccccc3nc12 (racemic) | 56.9 (≈ 25 µg/mL) |
| Nc1ccc(C2=NN(c3ccccc3)C3(C2)c2ccccc2-c2nc4ccccc4nc23)cc1 (racemic) | 7.17 (≈ 3.15 µg/mL) |
| O=C(CC1(O)c2ccccc2-n2c1nc1ccccc1c2=O)c1ccccc1O (racemic) | 16.2 (≈ 6.24 µg/mL) |
| N#Cc1ccc(C(=O)CC2(O)c3ccccc3-n3c2nc2ccccc2c3=O)cc1 (racemic) | 15.9 (≈ 6.26 µg/mL) |
| O=C(CC1(O)c2ccccc2-n2c1nc1ccccc1c2=O)c1ccc(F)cc1 (racemic) | 8.85 (≈ 3.42 µg/mL) |
| O=C(CC1(O)c2ccccc2-n2c1nc1ccccc1c2=O)c1ccc(Br)cc1 (racemic) | 112 (≈ 50 µg/mL) |
| Nc1ccccc1C(=O)CC1(O)c2ccccc2-n2c1nc1ccccc1c2=O (racemic) | 3.99 (≈ 1.53 µg/mL) |
| O=C(CC1(O)c2ccccc2-n2c1nc1ccccc1c2=O)c1cccs1 (racemic) | 16.7 (≈ 6.25 µg/mL) |
| CCc1ccc(C(=O)CC2(O)c3ccccc3-n3c2nc2ccccc2c3=O)cc1 (racemic) | 7.88 (≈ 3.12 µg/mL) |
| Nc1ccc(C(=O)CC2(O)c3ccccc3-n3c2nc2ccccc2c3=O)cc1 (racemic) | 16.3 (≈ 6.26 µg/mL) |
| O=C(CC1(O)c2cccc(Br)c2-n2c1nc1ccccc1c2=O)c1ccc(Br)cc1 (racemic) | 11.9 (≈ 6.24 µg/mL) |
| O=C(CC1(O)c2ccccc2-n2c1nc1ccccc1c2=O)c1ccccc1NC(=S)Nc1ccc([N+](=O)[O-])cc1 (racemic) | 5.98 (≈ 3.37 µg/mL) |
| O=C(CC1(O)c2ccccc2-n2c1nc1ccccc1c2=O)c1ccccc1 (racemic) | 16.9 (≈ 6.23 µg/mL) |
| O=C(O)c1cn(C2CC2)c2cc(N3CCNCC3)c(F)cc2c1=O [CIPROFLOXACIN] | 12.6 (≈ 4.17 µg/mL) |
| CC[C@@H](CO)NCCN[C@@H](CC)CO [ETHAMBUTOL] | 15.3 (≈ 3.13 µg/mL) |
